Source: patent US20150284331A1 (priority 2012, published 2015)
Substitutions are numbered along the chain they refer to. Like-named read-outs stand apart in the source and are kept apart here.

What was measured:
acetylcholinesterase = target: T1, acetylcholinesterase (Rattus norvegicus, UniProt P37136); assay: biochemical; assay type: biochemical; conditions: rat cortex enzyme; for acetylcholinesterase inhibitory activity inhibition ratio (%): final concentration 4×10−5 mol/L; for IC50: read-out: acetylcholinesterase inhibitory activity IC50 (nmol)
T1 construct: Acetylcholinesterase: rat cortex; from tissue; host or cells: rat cortex
T1 sequence (P37136 32-614): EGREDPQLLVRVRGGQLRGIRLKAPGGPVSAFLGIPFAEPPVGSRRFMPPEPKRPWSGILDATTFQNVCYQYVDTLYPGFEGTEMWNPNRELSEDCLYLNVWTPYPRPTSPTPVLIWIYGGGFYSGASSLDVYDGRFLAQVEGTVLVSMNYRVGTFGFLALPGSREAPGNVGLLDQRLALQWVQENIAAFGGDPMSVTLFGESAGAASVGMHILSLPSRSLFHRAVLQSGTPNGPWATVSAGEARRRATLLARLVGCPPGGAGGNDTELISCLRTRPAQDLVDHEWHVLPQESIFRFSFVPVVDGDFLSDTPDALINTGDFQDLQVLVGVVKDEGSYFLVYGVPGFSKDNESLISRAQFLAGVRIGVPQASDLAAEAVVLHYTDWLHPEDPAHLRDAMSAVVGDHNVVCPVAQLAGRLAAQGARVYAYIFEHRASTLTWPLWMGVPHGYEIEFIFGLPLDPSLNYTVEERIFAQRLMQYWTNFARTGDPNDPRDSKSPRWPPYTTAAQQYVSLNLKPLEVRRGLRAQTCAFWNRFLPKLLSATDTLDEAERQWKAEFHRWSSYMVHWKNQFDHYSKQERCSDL
Description: (§1) Sample processing: All samples were formulated as 10-2 mol/L solution by using 100% DMSO. 10-2 mol/L solution was used in microdetermination. 1 μL was taken to use in single tube experiment.
(§2) Solvent control: 0.4% DMSO was used in microdetermination. The inhibition ratio of the sample was obtained wherein the effect of solvent was deducted.
Acetylcholinesterase: rat cortex

butyrylcholinesterase = target: T2, butyrylcholinesterase (Rattus norvegicus, UniProt Q9JKC1); assay: inhibition of butyrylcholinesterase (rat serum); assay type: biochemical; conditions: rat serum enzyme; final concentration 4×10−5 mol/L
T2 construct: Butyrylcholinesterase: rat serum; from tissue; host or cells: rat serum
Description: as §1, §2
Butyrylcholinesterase: rat serum

KM mice = assay: acute toxicities of compounds on mice; assay type: in vivo; conditions: 100 mg/kg oral
Description: Sample processing: When getting samples, they were undissolved. […] The samples were suspensions. Experimental animals: KM mice, 22-29 g, half male and half female.
Experimental method: Mice were randomly divided into groups. 100 mg/kg of test compounds DC19 and DC20 were administered orally, respectively.

[1] = target: T3, cortex and hippocampus acetylcholinesterase of mice (Mus musculus, UniProt P21836); assay type: in vivo; conditions: for Acetylcholinesterase activity (%) cortex / Acetylcholinesterase activity (%) hippocampus: 1 h, % of solvent control, Mean ± SEM
T3 construct: from tissue; host or cells: mouse cortex and hippocampus homogenate
T3 sequence (P21836 32-614): T1 sequence (P37136 32-614) with I59V, T109A, S128A, T144A, S271A, D313E, A392T, V467T, Q478K, R499Q
Description: 5% DMSO was added and shaken sufficiently to dissolve the samples. Then 1% cosolvent EL (polyoxyethylated castor oil) was added and water was used to make up the remaining volumn to obtain 10 mg/mL sample. The samples were diluted gradually to 0.3 mg/mL, 1 mg/mL and 3 mg/mL. […] The samples were administrated orally according to 0.1˜mL/10 g of volumn to weight ratio. An equal amount of 5% DMSO and 1% EL solution was administered orally to the solvent control group.
(1) Acetylcholinesterase: mouse cortex and hippocampus. 1 h after orally administrated, the mice were decapitated. After the brains were taken out, the hippocampus and cortex were quickly stripped on the ice. To the cortex was added ice-cold 75 mM PBS, and homogenated to form 30× tissue homogenate and to the hippocampus was added ice-cold 75 mM PBS and homogenated to form 40× tissue homogenate. And finally 1/10 by volumn of OMPA was added and placed on the ice to be tested.
(2) Test Method: To the samples were added a reaction system containing PBS, H2O, S-Ach and DTNB. Except for the blank tube, to the rest of the tubes were added an appropriate amount of enzyme. The reaction was carried out at room temperature for 20 minutes. SDS was added to each tube to quench the reaction. An appropriate amount of enzyme was added to the blank tube. Absorbance of each tube was determined by UV-visible spectrophotometer (OD440 nm).

T2 sequence (Q9JKC1 24-597): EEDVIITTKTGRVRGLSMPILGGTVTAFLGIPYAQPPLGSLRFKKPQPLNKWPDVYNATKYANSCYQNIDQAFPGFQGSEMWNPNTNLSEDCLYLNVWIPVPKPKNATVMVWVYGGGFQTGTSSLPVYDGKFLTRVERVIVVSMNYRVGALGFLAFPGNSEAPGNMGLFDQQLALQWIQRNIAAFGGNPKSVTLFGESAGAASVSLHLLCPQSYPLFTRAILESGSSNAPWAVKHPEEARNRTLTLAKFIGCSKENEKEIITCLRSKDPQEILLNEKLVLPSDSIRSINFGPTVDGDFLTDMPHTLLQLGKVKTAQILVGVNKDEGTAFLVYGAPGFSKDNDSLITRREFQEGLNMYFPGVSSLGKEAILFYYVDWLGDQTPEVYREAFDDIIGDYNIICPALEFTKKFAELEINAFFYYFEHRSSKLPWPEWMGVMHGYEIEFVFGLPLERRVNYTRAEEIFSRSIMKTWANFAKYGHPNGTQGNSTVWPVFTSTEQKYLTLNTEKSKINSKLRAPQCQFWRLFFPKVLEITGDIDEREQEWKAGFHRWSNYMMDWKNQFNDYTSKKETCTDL

| SMILES | acetylcholinesterase inhibitory activity inhibition ratio (%) (acetylcholinesterase) | IC50 (acetylcholinesterase) [nM] | butyrylcholinesterase inhibitory activity inhibition ratio (%) (butyrylcholinesterase) | response symptoms (KM mice; female KM mouse) | time of death after administration (KM mice; male KM mouse) | also measured |
| --- | --- | --- | --- | --- | --- | --- |
| COc1cc2c(cc1OC)C(=O)C(CC1(F)CCN(Cc3ccccc3F)CC1)C2 (stereo not shown) [DC20, 2-((4-fluoro-1-(2-fluorobenzyl)piperidin-4-yl)methyl)-5,6-dimethoxy-2,3-dihydro-1H-inden-1-one] | 82.04 | 0.86 | 71.58 | 8 min, myasthenia, lacrimal | secretion, immobility; 24 h, | response symptoms (KM mice; male KM mouse): 6 min, myasthenia, reduction in; inhibition of cortex acetylcholinesterase compared with the solvent control group ([1]; 0.3 mg/kg oral): 14.67%; inhibition of hippocampus acetylcholinesterase compared with the solvent control group ([1]; 0.3 mg/kg oral): 15.47%; Acetylcholinesterase activity (%) cortex ([1]; 0.3 mg/kg oral): 85.33%; Acetylcholinesterase activity (%) hippocampus ([1]; 0.3 mg/kg oral): 84.53%; inhibition effects on mouse cortex and hippocampus AChE compared with Donepezil ([1]; 1 mg/kg of DC20 versus 10 mg/kg Donepezil): comparable to those of 10 mg/kg of positive control drug Donepezil; inhibition of cortex acetylcholinesterase compared with the solvent control group ([1]; 1 mg/kg oral): 22.02%; inhibition of hippocampus acetylcholinesterase compared with the solvent control group ([1]; 1 mg/kg oral): 19.76%; Acetylcholinesterase activity (%) cortex ([1]; 1 mg/kg oral): 77.98%; Acetylcholinesterase activity (%) hippocampus ([1]; 1 mg/kg oral): 80.24%; inhibition effects on mouse cortex and hippocampus acetylcholinesterase (in words) ([1]; 1 mg/kg, 3 mg/kg and 10 mg/kg oral): significant inhibition effects; inhibition of cortex acetylcholinesterase compared with the solvent control group ([1]; 3 mg/kg oral): 42.95%; inhibition of hippocampus acetylcholinesterase compared with the solvent control group ([1]; 3 mg/kg oral): 50.12%; Acetylcholinesterase activity (%) cortex ([1]; 3 mg/kg oral): 57.05%; Acetylcholinesterase activity (%) hippocampus ([1]; 3 mg/kg oral): 49.88%; inhibition of cortex acetylcholinesterase compared with the solvent control group ([1]; 10 mg/kg oral): 66.02%; inhibition of hippocampus acetylcholinesterase compared with the solvent control group ([1]; 10 mg/kg oral): 65.62%; Acetylcholinesterase activity (%) cortex ([1]; 10 mg/kg oral): 33.98%; Acetylcholinesterase activity (%) hippocampus ([1]; 10 mg/kg oral): 34.38%; overall activity compared with Donepezil ([1]; mouse cortex and hippocampus AChE, oral): better than that of Donepezil |
| O=C1c2cc(Cl)c(Cl)cc2CC1CC1(F)CCN(Cc2ccccc2F)CC1 (stereo not shown) [DC106, 5,6-dichloro-2-((4-fluoro-1-(2-fluorobenzyl)piperidin-4-yl)methyl)-2,3-dihydro-1H-inden-1-one] | 70.05 | 500 | 88.0 | – | – | – |
| CCOCOc1cc2c(cc1OCOCC)C(=O)C(CC1(F)CCN(Cc3ccccc3F)CC1)C2 (stereo not shown) [DC79, 5,6-bis(ethoxymethoxy)-2-((4-fluoro-1-(2-fluorobenzyl)piperidin-4-yl)methyl)-2,3-dihydro-1H-inden-1-one] | 93.05 | 1.86 | 75.0 | – | – | – |
| COc1cc2c(cc1OC)C(=O)C(CC1(F)CCN(Cc3ccccc3)CC1)C2 (stereo not drawn) [DC19, 2-((l-benzyl-4-fluoropiperidin-4-yl)methyl)-5,6-dimethoxy-2,3-dihydro-1H-inden-1-one] | 82.44 | 0.96 | 71.58 | 30 min squint | 3 h after administration, death | – |
| COc1cc2c(cc1OC)C(=O)C(CC1(F)CCN(Cc3cccc(F)c3)CC1)C2 (stereo not shown) [DC21, 2-((4-fluoro-1-(3-fluorobenzyl)piperidin-4-yl)methyl)-5,6-dimethoxy-2,3-dihydro-1H-inden-1-one] | 82.24 | – | 75.02 | – | – | – |
| COc1cc2c(cc1OC)C(=O)C(CC1(F)CCN(Cc3ccccc3C#N)CC1)C2.Cl (stereo not shown) [DC37, 2-((4-((5,6-dimethoxy-1-oxo-2,3-dihydro-1H-inden-2-yl)methyl)-4-fluoropiperidin-1-yl)methyl)benzonitrile hydrochloride] | 81.98 | – | 20.80 | – | – | – |
